The source of these data is ChEMBL document CHEMBL1275483, “Staphylococcus aureus cell wall stress stimulon gene-lacZ fusion strains: potential for use in screening for cell wall-active antimicrobials” (2008).

≈ marks a conversion by molar mass, not a printed value. Calls of active or inactive are those of the source. The calls are words filed in the database; no cut-off is given here.

For assay [1], the system named is Staphylococcus aureus. In words: Induction of Ppbp2::lacZ gene expression in Staphylococcus aureus SH1000 at 0.3 ug/ml after 0.5 hrs by beta-galactosidase reporter gene assay relative to untreated control. It counts as functional, organism-based. On the technique in general: A reporter such as luciferase makes a cellular process visible.
The subject of assay [2] is Staphylococcus aureus. In words: Induction of Ppbp2::lacZ gene expression in Staphylococcus aureus SH1000 at 8 ug/ml after 2 hrs by beta-galactosidase reporter gene assay relative to untreated control. Format: functional, organism-based.
In assay [3] the test system is Staphylococcus aureus. The experiment in a line: Induction of PvraSr::lacZ gene expression in Staphylococcus aureus SH1000 at 8 ug/ml after 2 hrs by beta-galactosidase reporter gene assay relative to untreated control. Format: functional, organism-based.
In assay [4] the test system is Staphylococcus aureus. The experiment in a line: Induction of PtcaA::lacZ gene expression in Staphylococcus aureus SH1000 at 8 ug/ml after 2 hrs by beta-galactosidase reporter gene assay relative to untreated control. It counts as functional, organism-based.
For assay [5], the system named is Staphylococcus aureus. The experiment in a line: Induction of PlytR::lacZ gene expression in Staphylococcus aureus SH1000 at 8 ug/ml after 2 hrs by beta-galactosidase reporter gene assay relative to untreated control. Format: functional, organism-based.
The test system of assay [6] is Staphylococcus aureus. The experiment in a line: Induction of PsgtB::lacZ gene expression in Staphylococcus aureus SH1000 at 8 ug/ml after 2 hrs by beta-galactosidase reporter gene assay relative to untreated control. Format: functional, organism-based.
For assay [7], the system named is Staphylococcus aureus. The experiment in a line: Antimicrobial activity against beta-lactamase producing Staphylococcus aureus SH1000. It counts as functional.
Assay [8] relates to Staphylococcus aureus. In words: Induction of Ppbp2::lacZ gene expression in Staphylococcus aureus SH1000 at 0.05 ug/ml after 2 hrs by beta-galactosidase reporter gene assay relative to untreated control. Format: functional.
The subject of assay [9] is Staphylococcus aureus. In words: Induction of PvraSr::lacZ gene expression in Staphylococcus aureus SH1000 at 0.05 ug/ml after 2 hrs by beta-galactosidase reporter gene assay relative to untreated control. It counts as functional.
In assay [10] the test system is Staphylococcus aureus. In words: Induction of PtcaA::lacZ gene expression in Staphylococcus aureus SH1000 at 0.05 ug/ml after 2 hrs by beta-galactosidase reporter gene assay relative to untreated control. It counts as functional.
For assay [11], the system named is Staphylococcus aureus. The experiment in a line: Induction of PlytR::lacZ gene expression in Staphylococcus aureus SH1000 at 0.05 ug/ml after 2 hrs by beta-galactosidase reporter gene assay relative to untreated control. Format: functional.
The test system of assay [12] is Staphylococcus aureus. The experiment in a line: Induction of PsgtB::lacZ gene expression in Staphylococcus aureus SH1000 at 0.05 ug/ml after 2 hrs by beta-galactosidase reporter gene assay relative to untreated control. It counts as functional.
Assay [13] concerns Staphylococcus aureus. In words: Induction of Ppbp2::lacZ gene expression in Staphylococcus aureus SH1000 at 3 ug/ml after 2 hrs by beta-galactosidase reporter gene assay relative to untreated control. It counts as functional.
Assay [14] has as its system Staphylococcus aureus. In words: Induction of PvraSr::lacZ gene expression in Staphylococcus aureus SH1000 at 3 ug/ml after 2 hrs by beta-galactosidase reporter gene assay relative to untreated control. It counts as functional.
In assay [15] the test system is Staphylococcus aureus. The experiment in a line: Induction of PtcaA::lacZ gene expression in Staphylococcus aureus SH1000 at 3 ug/ml after 2 hrs by beta-galactosidase reporter gene assay relative to untreated control. It counts as functional.
Assay [16] deals with Staphylococcus aureus. The experiment in a line: Induction of PlytR::lacZ gene expression in Staphylococcus aureus SH1000 at 3 ug/ml after 2 hrs by beta-galactosidase reporter gene assay relative to untreated control. It counts as functional.
Assay [17] concerns Staphylococcus aureus. In words: Induction of PsgtB::lacZ gene expression in Staphylococcus aureus SH1000 at 3 ug/ml after 2 hrs by beta-galactosidase reporter gene assay relative to untreated control. Format: functional.
The test system of assay [18] is Staphylococcus aureus. The experiment in a line: Induction of Ppbp2::lacZ gene expression in Staphylococcus aureus SH1000 at 2 ug/ml after 2 hrs by beta-galactosidase reporter gene assay relative to untreated control. Format: functional.
In assay [19] the test system is Staphylococcus aureus. The experiment in a line: Induction of PvraSr::lacZ gene expression in Staphylococcus aureus SH1000 at 2 ug/ml after 2 hrs by beta-galactosidase reporter gene assay relative to untreated control. Format: functional.
Assay [20] concerns Staphylococcus aureus. In words: Induction of PtcaA::lacZ gene expression in Staphylococcus aureus SH1000 at 2 ug/ml after 2 hrs by beta-galactosidase reporter gene assay relative to untreated control. It counts as functional.
Assay [21] has as its system Staphylococcus aureus. In words: Induction of PlytR::lacZ gene expression in Staphylococcus aureus SH1000 at 2 ug/ml after 2 hrs by beta-galactosidase reporter gene assay relative to untreated control. Format: functional.
Assay [22] relates to Staphylococcus aureus. The experiment in a line: Induction of PsgtB::lacZ gene expression in Staphylococcus aureus SH1000 at 2 ug/ml after 2 hrs by beta-galactosidase reporter gene assay relative to untreated control. It counts as functional.
Assay [23] deals with Staphylococcus aureus. The experiment in a line: Induction of Ppbp2::lacZ gene expression in Staphylococcus aureus SH1000 at 1 ug/ml after 2 hrs by beta-galactosidase reporter gene assay relative to untreated control. It counts as functional.
Assay [24] relates to Staphylococcus aureus. The experiment in a line: Induction of PvraSr::lacZ gene expression in Staphylococcus aureus SH1000 at 1 ug/ml after 2 hrs by beta-galactosidase reporter gene assay relative to untreated control. It counts as functional.
Assay [25] concerns Staphylococcus aureus. In words: Induction of PtcaA::lacZ gene expression in Staphylococcus aureus SH1000 at 1 ug/ml after 2 hrs by beta-galactosidase reporter gene assay relative to untreated control. Format: functional.
Assay [26] has as its system Staphylococcus aureus. The experiment in a line: Induction of PlytR::lacZ gene expression in Staphylococcus aureus SH1000 at 1 ug/ml after 2 hrs by beta-galactosidase reporter gene assay relative to untreated control. It counts as functional.
Assay [27] relates to Staphylococcus aureus. In words: Induction of PsgtB::lacZ gene expression in Staphylococcus aureus SH1000 at 1 ug/ml after 2 hrs by beta-galactosidase reporter gene assay relative to untreated control. It counts as functional.

Broadly, the MIC is the lowest concentration found to suppress growth. High values mean a less susceptible organism, low ones a more susceptible organism. Turning to `Cc1onc(-c2ccccc2)c1C(=O)N[C@@H]1C(=O)N2[C@@H]1SC(C)(C)[C@@H]2C(=O)O` [OXACILLIN], the outcome in [1], in assay [2], in assay [3], in assay [4], in assay [5] and in assay [6] was Active. The compound further came in with an MIC in [7] of 1 µg/mL (≈ 2.49 µM).

Consider `CO[C@H]1/C=C/O[C@@]2(C)Oc3c(C)c(O)c4c(O)c(c(/C=N/N5CCN(C)CC5)c(O)c4c3C2=O)NC(=O)/C(C)=C\C=C\[C@H](C)[C@H](O)[C@@H](C)[C@@H](O)[C@@H](C)[C@H](OC(C)=O)[C@@H]1C` [RIFAMPIN], for which the “fold change (FC)” value is on record as 1.9 in assay [8]; 1.2 in assay [9]; 0.99 in [10]; 0.98 in [11]; 1.19 in [12]. The MIC in assay [7] amounted to 0.05 µg/mL (≈ 0.0608 µM).

Turning to `CN[C@@H]1[C@H](O[C@H]2[C@H](O[C@H]3[C@H](O)[C@@H](O)[C@H](N=C(N)N)[C@@H](O)[C@@H]3N=C(N)N)O[C@@H](C)[C@]2(O)C=O)O[C@@H](CO)[C@H](O)[C@H]1O` [STREPTOMYCIN], the “fold change (FC)” value in [13] came to 0.3; in assay [14] it was 0.96; in assay [15] it was 0.79; in assay [16] it was 0.7; in assay [17] it was 0.41. Further, the lowest concentration to inhibit growth in [7] (MIC) was 1.5 µg/mL (≈ 2.58 µM).

Take `CN(C)[C@@H]1C(O)=C(C(N)=O)C(=O)[C@@]2(O)C(O)=C3C(=O)c4c(O)cccc4[C@@](C)(O)[C@H]3C[C@@H]12` [TETRACYCLINE]: the “fold change (FC)” value is 0.52 in assay [18]; 0.52 in assay [19]; 0.53 in assay [20]; 0.5 in assay [21]; 0.4 in assay [22]. In [7], this compound displayed an MIC of 0.5 µg/mL (≈ 1.13 µM).

As for `COc1cc(Cc2cnc(N)nc2N)cc(OC)c1OC` [TRIMETHOPRIM], the “fold change (FC)” value amounted to 0.88 in assay [23]; 0.9 in assay [24]; 1.24 in [25]; 0.92 in assay [26]; 1.19 in [27].
